Data as given in patent publication EP3381906A1, “COMPOUNDS FOR USE AS HEPARANASE INHIBITORS” (Leadiant Biosciences SA, priority 2017, dated 2018).

Biological target: T1, heparanase (Homo sapiens, UniProt Q9Y251)
T1 construct: 100 µM fondaparinux, 2.5 nM heparanase and serial dilutions of test compounds
T1 sequence (Q9Y251 158-543 limits assumed): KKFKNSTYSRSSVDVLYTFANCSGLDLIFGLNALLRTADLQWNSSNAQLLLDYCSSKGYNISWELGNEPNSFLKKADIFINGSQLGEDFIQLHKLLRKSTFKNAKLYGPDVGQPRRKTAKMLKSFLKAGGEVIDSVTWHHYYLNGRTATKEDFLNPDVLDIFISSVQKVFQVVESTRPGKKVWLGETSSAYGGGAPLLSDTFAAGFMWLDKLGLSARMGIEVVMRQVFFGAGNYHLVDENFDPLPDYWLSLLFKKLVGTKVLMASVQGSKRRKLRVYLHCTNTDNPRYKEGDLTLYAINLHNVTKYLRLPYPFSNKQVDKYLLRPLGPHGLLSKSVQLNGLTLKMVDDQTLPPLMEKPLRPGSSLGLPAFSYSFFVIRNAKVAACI
T1 sequence (Q9Y251 36-109 limits assumed): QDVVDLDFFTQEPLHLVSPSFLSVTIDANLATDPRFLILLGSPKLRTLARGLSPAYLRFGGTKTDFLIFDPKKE
Assay: AGA*IA assay: heparanase-catalyzed fondaparinux cleavage, colorimetric (WST-1)
Format: biochemical
Conditions: 2.5 nM heparanase, 100 µM fondaparinux, pH 5.0, 3 h at 37°C; class symbols; read-out: AGAIA assay (IC50)
Description: All compounds were tested in a simple, accurate and robust microplate assay based on the cleavage of the synthetic heparin fragment, the pentasaccharide Fondaparinux (AGA*IA). This assay was originally developed by Hammond and coworkers [Hammond E, Li CP, Ferro V. Development of a colorimetric assay for heparanase activity suitable for kinetic analysis and inhibitor screening. […] Fondaparinux is cleaved by heparanase to generate a reducing disaccharide, which can be quantitatively measured via a colorimetric or a fluorescence assay, the last by the fluorescent sensor polymer-H [Schiemann S, Lühn S, Alban S. Development of both colorimetric and fluorescence heparinase activity assays using fondaparinux as substrate.
The assay measures the appearance of the disaccharide product of heparanase-catalyzed fondaparinux cleavage colorimetrically using the tetrazolium salt WST-1. Assay was essentially performed as described with minor modifications. Briefly, NUNC ELISA 96-well plates were pre-treated with a solution of 4% BSA (bovin serum albumin) in phosphate-buffered saline containing 0.05% Tween 20 (PBST), for 2 h at 37°C, then washed three times with PBST, dried by tapping on paper towel and stored at -20°C. Before use, once again, the plates were washed with PBST.
Then, the absorbance at 560 nm was measured through a microplate reader (Victor 3, Perkin Elmer).
Finally, the measurements were corrected by subtracting both the reagent background and the inner absorbance value of test compound.

For `COc1cc(N=Nc2cc(S(=O)(=O)O)cc3cc(S(=O)(=O)O)cc(O)c23)c(C)cc1NC(=O)Nc1cc(C)c(N=Nc2cc(S(=O)(=O)O)cc3cc(S(=O)(=O)O)cc(O)c23)cc1OC` [SST0597], the IC50 was 50 to 490 nM.
